From patent US20080207634A1, “Chemical Compounds” (priority 2004, published 2008)

Experiments:
[1] = test system: HIV; test: HOS HIV anti-infectivity assay (strain not stated); type: cell-based; conditions: Human immunodeficiency virus 1, activity level class, read-out: Antiviral acitivity
Experimental: (§1) Compounds were profiled against two HIV-1 viruses, the M-tropic (CCR5 utilizing) Ba-L strain and the T-tropic (CXCR4 utilizing) IIIB strain. Both viruses were propagated in human peripheral blood lymphocytes. Compounds were tested for there ability to block infection of the HOS cell line (expressing hCXCR4/hCCR5/hCD4/pHIV-LTR-luciferase) by either HIV-1 Ba-L or HIV-1 IIIB. Compound cytotoxicity was also examined in the absence of virus addition.
(§2) HOS cells (expressing hCXCR4/hCCR5/hCD4/pHIV-LTR-luciferase) were harvested and diluted in Dulbeccos modified Eagles media supplemented with 2% FCS and non-essential amino acid to a concentration of 60,000 cells/ml. The cells were plated into 96-well plates (100 ul per well) and the plates were placed in a tissue culture incubator (37° C.; 5% CO2/95% air) for a period of 24 h.
(§3) Subsequently, 50 ul of the desired drug solution (4 times the final concentration) was added to each well and the plates were returned to the tissue culture incubator (37° C.; 5% CO2/95% air) for 1 h. Following this incubation 50 ul of diluted virus was added to each well (approximately 2 million RLU per well of virus). The plates were returned to the tissue culture incubator (37° C.; 5% CO2/95% air) and were incubated for a further 96 h.
(§4) Following this incubation the endpoint for the virally infected cultures was quantified following addition of Steady-Glo Luciferase assay system reagent (Promega, Madison, Wis.). Cell viability or non-infected cultures was measured using a CellTiter-Glo luminescent cell viability assay system (Promega, Madison, Wis.). All luminescent readouts are performed on a Topcount luminescence detector (Packard, Meridien, Conn.).

[2] = molecular target: T1, human CXCR4 (Homo sapiens, UniProt P61073); test: Functional FLIPR assay (block of SDF-1 alpha induced [Ca2+]i change); type: cell-based; conditions: HEK-293 cells with human CXCR4 BacMam and Gqi5 BacMam; antagonism of SDF-1 alpha; read-out: Functional assay (pIC50) (converted)
T1 construct: expressed in transfected cells; host or cells: HEK-293 cells (stably expressing human macrophage scavenging receptor) transduced with human CXCR4 BacMam and Gqi5 BacMam
Experimental: Human embryonic kidney (HEK-293) cells were maintained and harvested as described above. Cells were plated in 96-well, black clear bottom, poly-lysine coated plates at a concentration of 40,000 cells per well in a final volume of 100 ul containing human CXCR4BacMam (MOI=25) and Gqi5 BacMam (MOI=12.5). The cells were incubated at 37° C., 5% CO2, 95% humidity for 24 h to allow for protein expression.
After the required incubation time the cells were washed once with 50 ul of fresh serum-free DMEM/F12 media containing probenicid. 50 ul of dye solution was then added to the cells (Calcium Plus Assay Kit Dye; Molecular Devices) was dissolved in 200 ml of the above probenicid/BSA containing media and incubated for 1 h. Cell plates were transferred to a Fluorometric Imaging Plate Reader (FLIPR). Upon addition the effect of the compounds on the change in [Ca^2+]i was examined to determine if the compounds were agonists or antagonists (ability to block SDF-1 alpha activity) at the CXCR4 receptor. IC50 values are determined and pKb values are calculated using the Leff and Dougall equation: KB═IC50/((2+([agonist]/EC50̂b) ̂1/b−1) Where IC50 is that defined by the antagonist concentration-response curve [agonist] is the EC80 concentration of agonist used EC50 is that defined by the agonist concentration-response curve b is the slope of the agonist concentration-response curve.

[3] = test system: HIV-1 IIIB (T-tropic, CXCR4 utilizing); test: HOS HIV-1 infectivity assay, IIIB strain; type: cell-based; conditions: Human immunodeficiency virus 1; HOS cells infected with HIV-1 IIIB, 96 h, luciferase; read-out: HOS (3B)
Experimental: as §1, §2, §3, §4

[4] = Cell/cell fusion assay (luciferase); type: cell-based; conditions: Homo sapiens, HEK293; 24 h incubation, luciferase readout; read-out: Fusion assay (pIC50) (converted)
Description: The complete coding sequences of HIV-1 tat (GenBank Accession No. X07861) and rev (GenBank Accession No. M34378) were cloned into pcDNA3.1 expression vectors containing G418 and hygromycin resistance genes, respectively. The complete coding sequence of the HIV-1 (HXB2 strain) gp160 envelope gene (nucleotide bases 6225-8795 of GenBank Accession No. K03455) was cloned into plasmid pCRII-TOPO. The three HIV genes were additionally inserted into the baculovirus shuttle vector, pFastBacMam1, under the transcriptional control of the CMV promoter. A construction of the pHIV—I LTR containing mutated NFkB sequences linked to the luciferase reporter gene was prepared by digesting pcDNA3.1, containing the G418 resistance gene, with Nru I and Bam HI to remove the CMV promoter. LTR-luc was then cloned into the Nru I/Bam HI sites of the plasmid vector. Plasmid preparations were performed after the plasmids were amplified in Escherichia coli strain DH5-alpha. The fidelity of the inserted sequences was confirmed by double-strand nucleotide sequencing using an ABI Prism Model 377 automated sequencer.
Recombinant BacMam baculoviruses were constructed from pFastBacMam shuttle plasmids by using the bacterial cell-based Bac-to-Bac system. Viruses were propagated in Sf9 (Spodoptera frugiperda) cells cultured in Hink's TNM-FH Insect media supplemented with 10% (v/v) fetal bovine serum and 0.1% (v/v) pluronic F-68 according to established protocols.
Human osteosarcoma (HOS) cells that naturally express human CXCR4 were transfected with human CCR5, human CD4 and the pHIV-LTR-luciferase plasmid using FuGENE 6 transfection reagent. Single cells were isolated and grown under selection condition in order to generate a stable HOS (hCXCR4/hCCR5/hCD4/pHIV-LTR-luciferase) clonal cell line. The cells were maintained in Dulbeccos modified Eagles media supplemented with 10% fetal calf serum (FCS), G418 (400 ug/ml), puromycin (1 ug/ml), mycophenolic acid (40 ug/ml), xanthine (250 ug/ml) and hypoxanthine (13.5 ug/ml) to maintain a selection pressure for cells expressing the LTR-luciferase, hCCR5 and hCD4, respectively. Human embryonic kidney (HEK-293) cells stably transfected to express the human macrophage scavenging receptor (Class A, type 1; GenBank Accession No. D90187), were maintained in DMEM/F-12 media (1:1) supplemented with 10% FCS and 1.5 ug/ml puromycin. The expression of this receptor by the HEK-293 cells enhances their ability to stick to tissue culture treated plasticware.
HEK-293 cells were harvested using enzyme-free cell dissociation buffer. The cells were resuspended in DMEM/F-12 media supplemented with 10% FCS and 1.5 ug/ml and counted. […]
Following the 24 h incubation, total cellular luciferase activity was measured using the LucLite Plus assay kit (Packard, Meridien, Conn.). […]

[5] = Compound cytotoxicity in the absence of virus (CellTiter-Glo); type: cell-based; conditions: human; HOS cells, no virus; read-out: Cytotox (pIC50) (converted)
Experimental: as §1, §2, §3, §4

[6] = test system: T-tropic HIV; conditions: patients that are dual tropic or with only the T-tropic form of the virus; cited from earlier work

T1 sequence (P61073 whole entry): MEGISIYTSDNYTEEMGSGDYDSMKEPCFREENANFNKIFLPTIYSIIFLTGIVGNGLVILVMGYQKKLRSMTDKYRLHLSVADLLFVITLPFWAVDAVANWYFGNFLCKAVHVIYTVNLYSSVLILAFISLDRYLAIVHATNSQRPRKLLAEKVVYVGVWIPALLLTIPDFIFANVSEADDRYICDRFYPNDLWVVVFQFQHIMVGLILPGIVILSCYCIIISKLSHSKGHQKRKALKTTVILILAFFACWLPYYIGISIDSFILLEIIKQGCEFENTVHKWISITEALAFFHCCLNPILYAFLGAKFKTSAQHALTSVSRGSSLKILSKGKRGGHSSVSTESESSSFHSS

Row | IC50 [1] [nM] | SMILES | IC50 [2] [nM] | IC50 [3] [nM] | IC50 [4] [nM] | IC50 at 97 h [5] [nM] | T-tropic HIV viral load [6]
1 | < 100 | CN(C)C1CCN(c2cccc3nc(CN(C)[C@H]4CCOc5cccnc54)cn23)C1 (stereo partly drawn) [Example 9, (4S)—N-({5-[3-(Dimethylamino)-1-pyrrolidinyl]imidazo[1,2-a]pyridin-2-yl}methyl)-N-methyl-3,4-dihydro-2H-pyrano[3,2-b]pyridin-4-amine] | – | – | – | – | –
2 | < 100 | CN1CCC(N(C)c2cccc3nc(CN(C)C4CCOc5cccnc54)cn23)C1 (stereo not shown) [Example 12, N-Methyl-N-({5-[methyl(1-methyl-3-pyrrolidinyl)amino]imidazo[1,2-a]pyridin-2-yl}methyl)-3,4-dihydro-2H-pyrano[3,2-b]pyridin-4-amine] | – | – | – | – | –
3 | < 100 | CN1CCN(c2cccc3nc(CN(C)C4CCOc5cccnc54)c(CO)n23)CC1 (stereo not shown) [Example 14, [2-{[3,4-dihydro-2H-pyrano[3,2-b]pyridin-4-yl(methyl)amino]methyl}-5-(4-methyl-1-piperazinyl)imidazo[1,2-a]pyridin-3-yl]methanol] | – | – | – | – | –
4 | < 100 | CC(C)N1CCN(c2cccc3nc(CN(C)[C@H]4CCOc5cccnc54)cn23)CC1 [Example 8, (4S)—N-Methyl-N-({5-[4-(1-methylethyl)-1-piperazinyl]imidazo[1,2-a]pyridin-2-yl}methyl)-3,4-dihydro-2H-pyrano[3,2-b]pyridin-4-amine] | – | – | – | – | –
5 | < 100 | CN1CCN(c2cccc3nc(CN(C)[C@H]4CCOc5cccnc54)cn23)CC1 [Example 13, (4S)—N-Methyl-N-{[5-(4-methyl-1-piperazinyl)imidazo[1,2-a]pyridin-2-yl]methyl}-3,4-dihydro-2H-pyrano[3,2-b]pyridin-4-amine] | – | – | – | – | –
6 | 500 to 10000 | CN(Cc1cn2c(N3CCNC(=O)C3)cccc2n1)[C@H]1CCOc2cccnc21 [Example 7, 4-(2-{[(4S)-3,4-Dihydro-2H-pyrano[3,2-b]pyridin-4-yl(methyl)amino]methyl}imidazo[1,2-a]pyridin-5-yl)-2-piperazinone] | – | – | – | – | –
7 | < 100 | CN(Cc1cn2c(N3CCC(N)CC3)cccc2n1)[C@H]1CCOc2cccnc21 [Example 10, (4S)—N-{[5-(4-Amino-1-piperidinyl)imidazo[1,2-a]pyridin-2-yl]methyl}-N-methyl-3,4-dihydro-2H-pyrano[3,2-b]pyridin-4-amine] | – | – | – | – | –
8 | – | CN(Cc1cn2c(F)cccc2n1)C1CCOc2cccnc21 (stereo not shown) [Example 2, N-[(5-Fluoroimidazo[1,2-a]pyridin-2-yl)methyl]-N-methyl-3,4-dihydro-2H-pyrano[3,2-b]pyridin-4-amine] | > 10000 | > 20000 | > 10000 | > 10000 | –
9 | – | c1cc(CN2CCCNCCNCCCNCC2)ccc1CN1CCCNCCNCCCNCC1 [AMD-3100] | – | – | – | – | significantly reduce T-tropic HIV viral load
10 | < 100 | CN(Cc1cn2c(N3CCC(N)C3)cccc2n1)[C@H]1CCOc2cccnc21 (stereo partly drawn) [Example 11, (4S)—N-{[5-(3-Amino-1-pyrrolidinyl)imidazo[1,2-a]pyridin-2-yl]methyl}-N-methyl-3,4-dihydro-2H-pyrano[3,2-b]pyridin-4-amine] | – | – | – | – | –

Row | SMILES | IC50 [1] [nM] | IC50 [2] [nM] | IC50 [3] [nM] | IC50 [4] [nM] | IC50 at 97 h [5] [nM] | T-tropic HIV viral load [6]
11 | CN1CCN(c2cccc3nc(CN(C)C4CCOc5cccnc54)cn23)CC1 (stereo not shown) [Example 3, N-Methyl-N-{[5-(4-methyl-1-piperazinyl)imidazo[1,2-a]pyridin-2-yl]methyl}-3,4-dihydro-2H-pyrano[3,2-b]pyridin-4-amine] | < 100 | 6.92 | 17 | 2.63 | > 10000 | –
12 | CN(C)CCN(C)c1cccc2nc(CN(C)C3CCOc4cccnc43)cn12 (stereo not shown) [Example 5] | < 100 | 69.2 | 61 | 61.7 | > 10000 | –
13 | CN(Cc1cn2c(N3CCNCC3)cccc2n1)C1CCOc2cccnc21 (stereo not shown) [Example 4, N-Methyl-N-{[5-(1-piperazinyl)imidazo[1,2-a]pyridin-2-yl]methyl}-3,4-dihydro-2H-pyrano[3,2-b]pyridin-4-amine] | < 100 | 25.1 | 34 | 26.9 | > 10000 | –
